In ChEMBL document CHEMBL3864192, “Discovery and Optimization of Two Eis Inhibitor Families as Kanamycin Adjuvants against Drug-Resistant M. tuberculosis” (ACS Med Chem Lett, 2016) one finds MIC, IC50 and inhibition data, which are given here for 27 compounds.

Active and inactive are the calls of the source. No cut-off for these calls is given here.

The test system of experiment [1] is Mycobacterium tuberculosis. The experiment is described as follows: Potentiation of kanamycin induced-antimicrobial activity against Mycobacterium tuberculosis H37Rv at 54.2 uM preincubated for 24 hrs followed by kanamycin addition measured after 6 days by Alamar blue assay. The format is functional.
In experiment [2] the test system is Mycobacterium tuberculosis. Description: Inhibition of Mycobacterium tuberculosis K204 Eis assessed as kanamycin MIC at 54.2 uM preincubated for 24 hrs followed by kanamycin addition measured after 6 days by Alamar blue assay (Rvb >= 10 ug/ml). (Resazurin is reduced to fluorescent resorufin, in cell work by metabolically active cells.)
The test system of experiment [3] is Mycobacterium tuberculosis. The experiment is described as follows: Inhibition of Mycobacterium tuberculosis K204 Eis assessed as kanamycin MIC at 52.6 uM preincubated for 24 hrs followed by kanamycin addition measured after 6 days by Alamar blue assay (Rvb >= 10 ug/ml).
Experiment [4] has as its system Mycobacterium tuberculosis. The experiment is described as follows: Potentiation of kanamycin induced-antimicrobial activity against Mycobacterium tuberculosis H37Rv at 52.6 uM preincubated for 24 hrs followed by kanamycin addition measured after 6 days by Alamar blue assay. The format is functional.
Experiment [5] deals with T1, N-acetyltransferase Eis (Mycobacterium tuberculosis (strain ATCC 25618 / H37Rv), UniProt P9WFK7).
T1 sequence (P9WFK7 whole entry): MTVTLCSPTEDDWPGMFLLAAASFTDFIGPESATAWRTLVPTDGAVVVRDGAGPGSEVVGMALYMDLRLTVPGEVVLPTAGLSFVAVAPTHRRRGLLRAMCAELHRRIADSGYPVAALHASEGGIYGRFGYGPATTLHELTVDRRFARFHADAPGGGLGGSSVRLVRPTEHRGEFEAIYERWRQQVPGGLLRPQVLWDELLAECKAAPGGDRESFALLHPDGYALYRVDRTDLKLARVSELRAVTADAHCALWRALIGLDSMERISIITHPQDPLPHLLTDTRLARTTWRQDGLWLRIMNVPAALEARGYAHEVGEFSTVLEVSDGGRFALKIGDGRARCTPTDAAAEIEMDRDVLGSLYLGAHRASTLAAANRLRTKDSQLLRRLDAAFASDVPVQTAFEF
The experiment is described as follows: Inhibition of Mycobacterium tuberculosis H37Rv Eis expressed in Escherichia coli BL21(DE3) using Acetyl-CoA as substrate preincubated for 10 mins followed by substrate addition measured every 30 sec for 10 mins.

Experiment [6] has as its system Mycobacterium tuberculosis. Description: Inhibition of Mycobacterium tuberculosis K204 Eis assessed as kanamycin MIC at 8.9 uM preincubated for 24 hrs followed by kanamycin addition measured after 6 days by Alamar blue assay (Rvb >= 10 ug/ml).
The subject of experiment [7] is Mycobacterium tuberculosis. The experiment is described as follows: Potentiation of kanamycin induced-antimicrobial activity against Mycobacterium tuberculosis H37Rv at 8.9 uM preincubated for 24 hrs followed by kanamycin addition measured after 6 days by Alamar blue assay. It is filed as functional.
Experiment [8] deals with T2, N-acetyltransferase Eis (Mycobacterium tuberculosis (strain ATCC 25618 / H37Rv)) (UniProt P9WFK7).
T2 sequence (whole entry): T1 sequence (P9WFK7 whole entry)
The experiment is described as follows: Inhibition of Mycobacterium tuberculosis H37Rv Eis expressed in Escherichia coli BL21(DE3) at 20 uM using Acetyl-CoA as substrate after 5 mins by HTS assay.

Experiment [9] has as its system Mycobacterium tuberculosis. Description: Inhibition of Mycobacterium tuberculosis K204 Eis assessed as kanamycin MIC at 100 uM preincubated for 24 hrs followed by kanamycin addition measured after 6 days by Alamar blue assay (Rvb >= 10 ug/ml).
Experiment [10] has as its system Mycobacterium tuberculosis. Description: Potentiation of kanamycin induced-antimicrobial activity against Mycobacterium tuberculosis H37Rv at 100 uM preincubated for 24 hrs followed by kanamycin addition measured after 6 days by Alamar blue assay. It is filed as functional.
In experiment [11] the test system is Mycobacterium tuberculosis. Description: Potentiation of kanamycin induced-antimicrobial activity against Mycobacterium tuberculosis H37Rv at 25.1 uM preincubated for 24 hrs followed by kanamycin addition measured after 6 days by Alamar blue assay. It is filed as functional.
In experiment [12] the test system is Mycobacterium tuberculosis. Description: Inhibition of Mycobacterium tuberculosis K204 Eis assessed as kanamycin MIC at 25.1 uM preincubated for 24 hrs followed by kanamycin addition measured after 6 days by Alamar blue assay (Rvb >= 10 ug/ml).
The test system of experiment [13] is Mycobacterium tuberculosis. The experiment is described as follows: Potentiation of kanamycin induced-antimicrobial activity against Mycobacterium tuberculosis H37Rv at 15.5 uM preincubated for 24 hrs followed by kanamycin addition measured after 6 days by Alamar blue assay. The format is functional.
The subject of experiment [14] is Mycobacterium tuberculosis. The experiment is described as follows: Inhibition of Mycobacterium tuberculosis K204 Eis assessed as kanamycin MIC at 15.5 uM preincubated for 24 hrs followed by kanamycin addition measured after 6 days by Alamar blue assay (Rvb >= 10 ug/ml).
Experiment [15] deals with Mycobacterium tuberculosis. Description: Inhibition of Mycobacterium tuberculosis K204 Eis assessed as kanamycin MIC at 33.9 uM preincubated for 24 hrs followed by kanamycin addition measured after 6 days by Alamar blue assay (Rvb >= 10 ug/ml).
For experiment [16], the system named is Mycobacterium tuberculosis. The experiment is described as follows: Potentiation of kanamycin induced-antimicrobial activity against Mycobacterium tuberculosis H37Rv at 33.9 uM preincubated for 24 hrs followed by kanamycin addition measured after 6 days by Alamar blue assay. It is filed as functional.
Experiment [17] concerns Mycobacterium tuberculosis. Description: Inhibition of Mycobacterium tuberculosis K204 Eis assessed as kanamycin MIC at 32.6 uM preincubated for 24 hrs followed by kanamycin addition measured after 6 days by Alamar blue assay (Rvb >= 10 ug/ml).
Experiment [18] has as its system Mycobacterium tuberculosis. Description: Potentiation of kanamycin induced-antimicrobial activity against Mycobacterium tuberculosis H37Rv at 32.6 uM preincubated for 24 hrs followed by kanamycin addition measured after 6 days by Alamar blue assay. The format is functional.
Experiment [19] concerns Mycobacterium tuberculosis. The experiment is described as follows: Inhibition of Mycobacterium tuberculosis K204 Eis assessed as kanamycin MIC at 1.5 uM preincubated for 24 hrs followed by kanamycin addition measured after 6 days by Alamar blue assay (Rvb >= 10 ug/ml).
The test system of experiment [20] is Mycobacterium tuberculosis. The experiment is described as follows: Potentiation of kanamycin induced-antimicrobial activity against Mycobacterium tuberculosis H37Rv at 1.5 uM preincubated for 24 hrs followed by kanamycin addition measured after 6 days by Alamar blue assay. It is filed as functional.
Experiment [21] deals with Mycobacterium tuberculosis. The experiment is described as follows: Potentiation of kanamycin induced-antimicrobial activity against Mycobacterium tuberculosis H37Rv at 29.7 uM preincubated for 24 hrs followed by kanamycin addition measured after 6 days by Alamar blue assay. It is filed as functional.
The test system of experiment [22] is Mycobacterium tuberculosis. Description: Inhibition of Mycobacterium tuberculosis K204 Eis assessed as kanamycin MIC at 29.7 uM preincubated for 24 hrs followed by kanamycin addition measured after 6 days by Alamar blue assay (Rvb >= 10 ug/ml).
For experiment [23], the system named is Mycobacterium tuberculosis. The experiment is described as follows: Potentiation of kanamycin induced-antimicrobial activity against Mycobacterium tuberculosis H37Rv at 64.5 uM preincubated for 24 hrs followed by kanamycin addition measured after 6 days by Alamar blue assay. It is filed as functional.
Experiment [24] has as its system Mycobacterium tuberculosis. The experiment is described as follows: Inhibition of Mycobacterium tuberculosis K204 Eis assessed as kanamycin MIC at 64.5 uM preincubated for 24 hrs followed by kanamycin addition measured after 6 days by Alamar blue assay (Rvb >= 10 ug/ml).

For `O=C(CN1C(=O)C2(OCCO2)c2ccccc21)c1cccc(Br)c1`, the MIC was ≤ 1.25 µg/mL in experiment [1] and 5 to 10 µg/mL in [2].
What is called IC50 is the concentration at which inhibition is half-maximal. Take `COC(=O)c1cc2occc2n1CC(=O)c1cccc(Br)c1`: the MIC was > 10 µg/mL in experiment [3] and ≤ 1.25 µg/mL in experiment [4]. The half-maximal inhibitory concentration (IC50) in [5] is 500 nM.
With `O=C(CN1C(=O)C2(OCCO2)c2ccccc21)c1ccc(F)cc1`, the values for the MIC in [6] and in [7] were 5 µg/mL and ≤ 1.25 µg/mL, respectively. In experiment [5], this compound displayed a concentration for half-maximal inhibition (IC50) of 90 nM. Further, the inhibition entry in [8] was “Active”.
On to `O=C(CN1C(=O)C2(OCCO2)c2ccccc21)c1cccc([N+](=O)[O-])c1`, for which the MIC is 5 to 10 µg/mL in [9] and ≤ 1.25 µg/mL in experiment [10].
In the same order, the values of `COC(=O)c1cc2occc2n1CC(=O)c1ccc(C)cc1` are 5 to 10 µg/mL and ≤ 1.25 µg/mL.
For `Cc1ccc(C(=O)CN2C(=O)C3(OCCO3)c3ccccc32)cc1`, in that order: 5 to 10 µg/mL and ≤ 1.25 µg/mL.
Turning to `CCC(=O)Cn1c(C(=O)OC)cc2occc21`, the MIC in experiment [9] is > 10 µg/mL; in [10], ≤ 1.25 µg/mL. In [5], the IC50 is > 200000 nM.
In the same order, the values of `CCC(=O)CN1C(=O)C2(OCCO2)c2ccccc21` are > 10 µg/mL, ≤ 1.25 µg/mL and > 200000 nM.
Turning to `O=C(CN1C(=O)C2(OCCO2)c2ccccc21)c1ccc(Br)cc1`, the MIC in experiment [9] was > 10 µg/mL; in experiment [10], ≤ 1.25 µg/mL. The IC50 in experiment [5] is > 200000 nM. In addition, the inhibition result in experiment [8] was “Active”.
Consider `COC(=O)c1cc2occc2n1CC(=O)c1cccc(Cl)c1`, for which the MIC in [11] is ≤ 1.25 µg/mL; in experiment [12], > 10 µg/mL.
For the compound `COC(=O)c1cc2occc2n1CC(=O)c1cccc(F)c1`, the MIC is ≤ 1.25 µg/mL in [13] and 10 µg/mL in experiment [14].
Consider `COC(=O)c1cc2occc2n1CC(=O)c1ccc(F)cc1`, for which the MIC is 10 µg/mL in experiment [15] and ≤ 1.25 µg/mL in [16]. The same compound had an IC50 in experiment [5] of 300 nM.
As to `COC(=O)c1cc2occc2n1CC(=O)c1ccc(Br)cc1`, the MIC in [9] was > 10 µg/mL; in experiment [10], ≤ 1.25 µg/mL.
For `COC(=O)c1cc2occc2n1CC(=O)c1ccc2ccccc2c1`, in that order: 10 µg/mL and ≤ 1.25 µg/mL.
In the case of `COC(=O)c1cc2occc2n1CC(=O)c1cccc(OC)c1`, the MIC in experiment [9] was > 10 µg/mL; in experiment [10], ≤ 1.25 µg/mL. The IC50 in [5] was > 200000 nM.
As to `COC(=O)c1cc2occc2n1CC(=O)c1ccccc1`, the MIC is 5 to 10 µg/mL in experiment [9] and ≤ 1.25 µg/mL in [10]. For the same compound, in experiment [8], the inhibition entry was “Active”.
In the case of `COC(=O)c1cc2occc2n1CC(=O)C(C)(C)C`, the MIC in experiment [9] is > 10 µg/mL; in experiment [10] it was ≤ 1.25 µg/mL. The IC50 in [5] was > 200000 nM.
In the case of `O=C(CN1C(=O)C2(OCCO2)c2ccccc21)c1ccc(Cl)cc1`, the MIC in experiment [9] is 5 to 10 µg/mL; in experiment [10], ≤ 1.25 µg/mL. In experiment [5], this compound returned a half-maximal inhibitory concentration (IC50) of 2200 nM. Further, in experiment [8], the inhibition entry was “Active”.
Consider `CC(C)(C)C(=O)CN1C(=O)C2(OCCO2)c2ccccc21`, for which the figures for the MIC in experiment [9] and in [10] were > 10 µg/mL and ≤ 1.25 µg/mL, respectively. Moreover, the IC50 in experiment [5] is > 200000 nM.
For `O=C(CN1C(=O)C2(OCCO2)c2ccccc21)c1ccccc1`, 330 nM corresponded to half-maximal inhibition in experiment [5] (IC50). The MIC is 5 µg/mL in experiment [17] and ≤ 1.25 µg/mL in [18].
As to `O=C(CN1C(=O)C2(OCCO2)c2ccccc21)c1ccccc1F`, the figures for the MIC in experiment [9] and in experiment [10] were 10 µg/mL and ≤ 1.25 µg/mL, respectively.
For `O=C(CN1C(=O)C2(OCCO2)c2ccccc21)c1ccc2ccccc2c1`, in that order: 10 µg/mL and ≤ 1.25 µg/mL.
For `O=C(CN1C(=O)C2(OCCO2)c2ccccc21)c1cccc(Cl)c1`, the MIC in experiment [19] was > 10 µg/mL; in experiment [20] it was ≤ 1.25 µg/mL.
On to `O=C(CN1C(=O)C2(OCCO2)c2ccccc21)c1cccc(F)c1`, for which the MIC was ≤ 1.25 µg/mL in experiment [21] and 2.5 to 5 µg/mL in experiment [22].
With `COC(=O)c1cc2occc2n1CC(=O)c1ccccc1F`, the MIC in experiment [9] was 10 µg/mL; in experiment [10] it was ≤ 1.25 µg/mL.
For `COc1cccc(C(=O)CN2C(=O)C3(OCCO3)c3ccccc32)c1`, in that order: > 10 µg/mL and ≤ 1.25 µg/mL.
For `COC(=O)c1cc2occc2n1CC(=O)c1ccc(Cl)cc1`, the MIC was ≤ 1.25 µg/mL in experiment [23] and > 10 µg/mL in [24].
